# Results from patent US11117930B2, “Peptide inhibitors of transcription factor aggregation” (ADRX, INC., priority 2017, dated 2021).
# Like-named read-outs stand apart in the source and are kept apart here. Non-standard residues stand in square brackets, D forms with d. Residues, ends and D or L forms follow the SMILES beside them. No end group written: not given here. NMeI = CC[C@H](C)[C@H](NC)C(=O)O
# Columns and labels:
# [1] = biological target: Nat1 (LTIITLE (SEQ ID NO: 225)) (Homo sapiens, UniProt P04637); assay: Thioflavin T aggregation assay (Nat1); assay type: biochemical; conditions: ThT fluorescence, 50 μM Nat1, pH6.0, room temperature, 2 hours
# Procedure: (§1) The peptides of the invention were tested in an in vitro Thiofiavin T aggregation assay [see WO2014/182961]. An increase in Thioflavin T fluorescence is detected over time due to the formation of increasing amounts of amyloid to which the dye can specifically bind. […] For the Nat1 Stock Solution, Nat (LTIITLE (SEQ ID NO: 225), >95% Pure, TFA salt) is dissolved at 8 mM in 25 mM NaOH solution and kept at −80° C. Prior to the assay, it is diluted to 1 mM in H2O. The 2× Reaction Buffer is prepared with 200 mM Sodium Phosphate, pH6.0, 500 mM Sodium Chloride and 200 μM Thioflavin T (ThT). 100 μL of 2× reaction buffer and 80 μL of H2O are added to each well in black, clear-bottomed 96-well plate. Inhibitor peptides are dissolved in H2O to appropriate concentrations to produce 6-points dose response curves. 10 μL of dissolved peptide or H2O (control) is added to each reaction well. 10 μL of 1 mM Nat1 peptide is added to each reaction well (a final concentration of 50 μM). ThT fluorescence is monitored at room temperature every minute for 2 hours with excitation and emission wavelengths of 440 and 485 nm, respectively. IC50 values are calculated using Graphpad Prism.
# [2] = biological target: p63 [RPILIIVTLE—SEQ ID NO: 226] (Homo sapiens, UniProt Q9H3D4); assay: Thioflavin T aggregation assay, p63 amyloidogenic region; assay type: biochemical; set-up: dose or concentration left out as unconfirmed; conditions: inhibitors added in solution; FIG. 2(a)
# Excerpt: (§2) FIGS. 1(a) and 1(b) show the aggregation of p63 and p73 amyloidogenic regions, respectively. The aggregation of the p63 and p73 sequences are monitored via Thioflavin T assay: an increase in Thioflavin T fluorescence is detected over time due to the formation of increasing amounts of amyloid to which the dye can specifically bind.
# (§3) FIGS. 2(a) and 2(b) show the in vitro inhibition of p63 and p73 aggregation by several inhibitors. The aggregation is monitored via Thioflavin T assay. […] The baseline of no inhibitor is the line with squares.
# The peptides are tested for p63 binding and p73 binding in an in vitro Thiofiavin T aggregation assay. […] The addition of the 50 μM solutions of p63 and p73 peptides to the reaction Buffer described in Example 3, forms amyloid (FIG. 1(a) and FIG. 1(b)). An increase in Thioflavin T fluorescence is detected over time due to the formation of increasing amounts of amyloid to which the dye can specifically bind. […] For the Nat1 Stock Solution, Nat1 (LTIITLE (SEQ ID NO: 225), >95% Pure, TFA salt) is dissolved at 8 mM in 25 mM NaOH solution and kept at −80° C. Prior to the assay, it is diluted to 1 mM in H2O. […] ThT fluorescence is monitored at room temperature every minute for 2 hours with excitation and emission wavelengths of 440 and 485 nm, respectively. […]
# [3] = biological target: p73 [RPILIIITLE—SEQ ID NO: 227] (Homo sapiens, UniProt O15350); assay: Thioflavin T aggregation assay, p73 amyloidogenic region; assay type: biochemical; set-up: dose or concentration left out as unconfirmed; conditions: inhibitors added in solution; FIG. 2(b)
# Excerpt: as §2, §3
# as §1, with “An” for “The peptides of the invention were tested in an in vitro Thiofiavin T aggregation assay [see WO2014/182961]. An”, “Solution, Nat1” for “Solution, Nat”, “curves. […]” for “curves. 10 μL of dissolved peptide or H2O (control) is added to each reaction well. 10 μL of 1 mM Nat1 peptide is added to each reaction well (a final concentration of 50 μM).”, “respectively. […]” for “respectively. IC50 values are calculated using Graphpad Prism.”
# [4] = Protein binding in human serum; assay type: in vitro ADME; conditions: CPP linked peptides
# Stability in human serum = assay type: in vitro ADME; conditions: CPP linked peptides, read-out: Stability in Human Serum (t1/2)
# OVCAR3 = assay type: cell-based; conditions: 24 h
# Procedure: (§4) To render the inhibitors cell permeable, the peptides are fused to either a nine-residue poly L-Arg tag or a nine-residue poly D-Arg tag, through one of several three-residue linkers, either L-RPI, D-RPI, or D-GGG. Cancer cell lines, e.g. OVCAR-3, and Detroit 562 are treated with the peptide conjugates for 24 hours by the following method. OVCAR3 and Detroit-562 cells are grown in ATCC recommended growth media. The peptides were made in a 4 mM stock. Cells are plated in 96-well flat bottom clear plates at 7000 cells/well. After 24 hours, compounds are serially diluted in one-third [starting at 33 μM] or one-half [starting at 30 μM] dilutions in PrEGM media (Lonza). Growth media was removed from the wells and compound in PrEGM was added to 100 ul final volume. 24 hours post-compound addition cell metabolism was measured by addition of 20 μl MTS solution (Promega, cell-titer 96 aqueous). Absorbance was read at 490 nm following a 2 hour incubation and data was processed in Prism Graphpad to generate EC50 values.
# Detroit-562 = assay type: cell-based; conditions: 24 h
# Procedure: as §4
Molecule,IC50 [1] [µM],in vitro inhibition of p63 aggregation [2],in vitro inhibition of p73 aggregation [3],fraction unbound [4],half-life (Stability in human serum; cells given in hr) [h],EC50 (OVCAR3) [µM],EC50 (Detroit-562) [µM],half-life (Stability in human serum) [h]
CC[C@H](C)[C@@H](C(=O)N[C@@H](CCCCN)C(=O)N[C@@H](Cc1ccc(O)cc1)C(=O)N[C@@H](Cc1c[nH]cn1)C(=O)N[C@@H](CCCNC(=N)N)C(=O)O)N(C)C(=O)[C@H](CCCNC(=N)N)NC(=O)[C@@H](N)CC(C)C [LR(N-Me)IKYHR] (H-LR[NMeI]KYHR-OH; N-terminus and C-terminus assumed),0.334,,,,,,,
N=C(N)NCCC[C@@H](N)C(=O)N[C@H](Cc1ccccc1)C(=O)N[C@H](Cc1ccc(O)cc1)C(=O)N[C@H](Cc1ccc(O)cc1)C(=O)N[C@H](Cc1c[nH]cn1)C(=O)N[C@H](CCCNC(=N)N)C(=O)N[C@H](CCCNC(=N)N)C(=O)O [rfyyhrr] (H-[dR][dF][dY][dY][dH][dR][dR]-OH; N-terminus and C-terminus assumed),,delay the aggregation onset and lower the total amount of aggregates present,delay the aggregation onset and lower the total amount of aggregates present,,,,,
CC[C@@H](C)[C@@H](NC(=O)[C@H]1CCCN1C(=O)[C@@H](CCCNC(=N)N)NC(=O)[C@@H](CCCNC(=N)N)NC(=O)[C@@H](CCCNC(=N)N)NC(=O)[C@@H](CCCNC(=N)N)NC(=O)[C@@H](CCCNC(=N)N)NC(=O)[C@@H](CCCNC(=N)N)NC(=O)[C@@H](CCCNC(=N)N)NC(=O)[C@@H](CCCNC(=N)N)NC(=O)[C@@H](CCCNC(=N)N)NC(=O)[C@H](N)CCCNC(=N)N)C(=O)N[C@H](CCCNC(=N)N)C(=O)N[C@@H](C(=O)N[C@H](Cc1c[nH]cn1)C(=O)N[C@H](Cc1ccc(O)cc1)C(=O)N[C@H](Cc1ccccc1)C(=O)N[C@H](CCCNC(=N)N)C(=O)N[C@H](CCCNC(=N)N)C(=O)O)[C@H](C)CC [rrrrrrrrrrpirihyfrr] (H-[dR][dR][dR][dR][dR][dR][dR][dR][dR][dR][dP][dI][dR][dI][dH][dY][dF][dR][dR]-OH; N-terminus and C-terminus assumed),,,,0.07,> 24,4,5,
CC[C@@H](C)[C@@H](NC(=O)[C@H]1CCCN1C(=O)[C@@H](CCCNC(=N)N)NC(=O)[C@@H](CCCNC(=N)N)NC(=O)[C@@H](CCCNC(=N)N)NC(=O)[C@@H](CCCNC(=N)N)NC(=O)[C@@H](CCCNC(=N)N)NC(=O)[C@@H](CCCNC(=N)N)NC(=O)[C@@H](CCCNC(=N)N)NC(=O)[C@@H](CCCNC(=N)N)NC(=O)[C@@H](CCCNC(=N)N)NC(=O)[C@H](N)CCCNC(=N)N)C(=O)N[C@H](Cc1ccc(O)cc1)C(=O)N[C@H](CCC(N)=O)C(=O)N[C@H](Cc1c[nH]c2ccccc12)C(=O)N[C@H](Cc1ccc(O)cc1)C(=O)N[C@H](CCCNC(=N)N)C(=O)N[C@H](Cc1c[nH]c2ccccc12)C(=O)N[C@H](CCC(N)=O)C(=O)O [rrrrrrrrrrpiyqwyrwq] (H-[dR][dR][dR][dR][dR][dR][dR][dR][dR][dR][dP][dI][dY][dQ][dW][dY][dR][dW][dQ]-OH),,,,0.01,> 24,6,5,
Ac-IRIRRYR-NH2 [Ac-IRIRRYR-NH2],0.069,,,,,,,
LLIKYHR [LLIKYHR],,delay the aggregation onset and lower the total amount of aggregates present,delay the aggregation onset and lower the total amount of aggregates present,,,,,
PRRRRRRRRRRPIIRIRHYRP,,,,0.11,,10,12,1.93
PRRRRRRRRRRPILRIRYWKP,,,,0.02,,5,5,3.33
PRRRRRRRRRRPITRIRFYRP,,,,0.11,,8,9,1.72
RRRRRRRRRRPIIRIRHYP [RRRRRRRRRRPIIRIRHYP],,,,0.17,,6,7,4.92
RRRRRRRRRRPIIRIRHYR [RRRRRRRRRRPIIRIRHYR],,,,0.16,,6,6,0.5
RRRRRRRRRRPIIRIRHYRP,,,,0.19,,7,7,2.07
"RRRRRRRRRRPILTRITLE [RRRRRRRRRRPILTRITLE, reference compound]",,,,0.34,,8,9,5.65
